# Laboratory results reported in patent US9629861B2, “Compositions and methods for treating bacterial infections using ceftaroline” (Forest Laboratories Holdings Limited, priority 2009, dated 2017).
# Like-named read-outs stand apart in the source and are kept apart here.
# Columns and labels:
# [1] = test system: Community-Acquired Bacterial Pneumonia (CABP); assay: Phase 3 CABP Study 2 (Example 4, no adjunctive macrolide); assay type: in vivo, human; settings: for Treatment Difference in clinical cure rate at TOC: versus ceftriaxone, CABP Study 2
# Procedure: (§1) In both treatment groups of CABP Study 1, two doses of oral clarithromycin (500 mg q12h), were administered as adjunctive therapy starting on Study Day 1. No adjunctive macrolide therapy was used in CABP Study 2. Patients with new or progressive pulmonary infiltrate(s) on chest radiography and clinical signs and symptoms consistent with CABP with the need for hospitalization and IV therapy were enrolled in the studies. Treatment duration was 5 to 7 days. A switch to oral therapy was not allowed. The Modified Intent-to-Treat Efficacy (MITTE) population included all patients who received any amount of study drug according to their randomized treatment group and were in PORT (Pneumonia Outcomes Research Team) Risk Class III or IV.
# (§2) The primary efficacy endpoint was the clinical response at the Test of Cure (TOC) visit in the co-primary CE and MITTE populations (Table 4).
# (§3) The secondary objectives of the study were to evaluate the following: clinical response at end-of-therapy (EOT); the microbiological favorable outcome rate at TOC; the overall (clinical and radiographic) success rate at TOC; the clinical and microbiological response by pathogen at TOC; clinical relapse at late follow-up (LFU); microbiological reinfection/recurrence at LFU; and safety.
# (§4) The following criteria were used for evaluation: The primary efficacy outcome measures were the per-subject clinical cure rate at test-of-cure (TOC) in the CE and MITTE Populations. Subjects were considered clinically cured at TOC if they had total resolution of all signs and symptoms of the baseline infection, or improvement of the infection such that no further antimicrobial therapy was necessary.
# (§5) Non-inferiority was concluded if the lower limit of the 95% CI was higher than −10%.
# [2] = test system: Haemophilus parainfluenzae; settings: ME patients with CABP
# [3] = Example 4
# Procedure: The 600-mg dose of ceftaroline fosamil infused over 60 minutes was split into two infusions in order to maintain the blind. For subjects with moderate renal impairment (30 ml/min<CrCl≦50 ml/min), as estimated by the Cockroft-Gault formula, unblinded pharmacy staff or unblinded study staff could adjust the dose of ceftaroline fosamil to two consecutive 200 mg infusions and readjust dose to two 300 mg infusions when renal function improved (CrCl>50 mL/min). The duration of treatment was between 5 to 7 days.
# (§6) All subjects who received any amount of study drug were included in the safety analysis. Safety measures included monitoring for adverse events (AE) up to TOC and serious adverse events (SAE) through LFU; recording vital signs, physical examination, electrocardiogram (ECG), and clinical laboratory findings (clinical chemistry, hematology, and urinalysis), at prespecified times throughout the study.
# [4] = Example 5
# Procedure: The 600-mg dose of ceftaroline fosamil infused over 60 minutes was split into two infusions in order to maintain the blind. For subjects with moderate renal impairment (30 mL/min<CrCl≦50 mL/min), as estimated by the Cockroft-Gault formula, unblinded pharmacy staff or unblinded study staff could adjust the dose of ceftaroline fosamil to two consecutive 200 mg infusions and readjust dose to two 300 mg infusions when renal function improved (CrCl>50 mL/min). The duration of treatment was between 5 to 7 days.
# as §6
# Aqueous solubility = assay type: physicochemical; settings: with L-arginine, depending on the molarity of the solution
# Description: In further embodiments, the compositions may comprise L-arginine.
# [5] = Pharmacokinetics of ceftaroline after IV infusion of ceftaroline fosamil in adults with normal renal function; design: species or system human; settings: in vivo
# Description: The standard deviation is shown in brackets.
# CYP1A1 = molecular target: T1, CYP1A1 (Homo sapiens, UniProt P04798); assay: CYP inhibition in human liver microsomes; assay type: in vitro ADME
# T1 construct: In vitro studies in human liver microsomes; from tissue; host or cells: human liver microsomes
# T1 sequence (P04798 whole entry): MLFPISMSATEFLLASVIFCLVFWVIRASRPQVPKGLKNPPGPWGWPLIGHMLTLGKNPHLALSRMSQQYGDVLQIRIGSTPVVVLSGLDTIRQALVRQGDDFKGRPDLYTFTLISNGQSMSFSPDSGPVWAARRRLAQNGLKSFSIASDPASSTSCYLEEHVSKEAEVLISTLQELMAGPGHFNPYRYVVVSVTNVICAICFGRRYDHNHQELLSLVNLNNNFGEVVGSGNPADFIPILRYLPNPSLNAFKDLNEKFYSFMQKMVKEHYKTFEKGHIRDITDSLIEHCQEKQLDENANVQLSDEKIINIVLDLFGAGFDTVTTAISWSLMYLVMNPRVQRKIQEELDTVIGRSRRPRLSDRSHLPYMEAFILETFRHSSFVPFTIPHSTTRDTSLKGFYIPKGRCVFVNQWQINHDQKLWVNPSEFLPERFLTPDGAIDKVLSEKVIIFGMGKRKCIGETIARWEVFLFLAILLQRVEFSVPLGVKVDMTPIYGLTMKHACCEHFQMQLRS
# CYP1A2 [6] = molecular target: CYP1A2 (Homo sapiens, UniProt P05177); assay type: in vitro ADME; settings: human liver microsomes
# CYP1A2 (Homo sapiens, UniProt P05177), sequence (P05177 whole entry): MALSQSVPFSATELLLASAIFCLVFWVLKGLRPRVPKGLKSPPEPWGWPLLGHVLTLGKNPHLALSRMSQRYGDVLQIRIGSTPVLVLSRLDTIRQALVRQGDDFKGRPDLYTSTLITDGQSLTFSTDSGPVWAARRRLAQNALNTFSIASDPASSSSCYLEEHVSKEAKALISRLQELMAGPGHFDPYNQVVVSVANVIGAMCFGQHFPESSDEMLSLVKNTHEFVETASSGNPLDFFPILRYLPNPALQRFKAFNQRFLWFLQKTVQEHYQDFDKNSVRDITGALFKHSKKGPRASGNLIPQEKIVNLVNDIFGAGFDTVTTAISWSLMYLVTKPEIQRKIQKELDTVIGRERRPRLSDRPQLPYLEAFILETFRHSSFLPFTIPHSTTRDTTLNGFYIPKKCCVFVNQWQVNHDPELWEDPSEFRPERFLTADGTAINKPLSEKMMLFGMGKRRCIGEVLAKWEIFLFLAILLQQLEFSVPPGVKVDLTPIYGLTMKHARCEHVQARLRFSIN
# CYP2A6 = molecular target: T2, CYP2A6 (Homo sapiens, UniProt P11509); assay: CYP inhibition in human liver microsomes; assay type: in vitro ADME
# T2 construct: In vitro studies in human liver microsomes; from tissue; host or cells: human liver microsomes
# T2 sequence (P11509 whole entry): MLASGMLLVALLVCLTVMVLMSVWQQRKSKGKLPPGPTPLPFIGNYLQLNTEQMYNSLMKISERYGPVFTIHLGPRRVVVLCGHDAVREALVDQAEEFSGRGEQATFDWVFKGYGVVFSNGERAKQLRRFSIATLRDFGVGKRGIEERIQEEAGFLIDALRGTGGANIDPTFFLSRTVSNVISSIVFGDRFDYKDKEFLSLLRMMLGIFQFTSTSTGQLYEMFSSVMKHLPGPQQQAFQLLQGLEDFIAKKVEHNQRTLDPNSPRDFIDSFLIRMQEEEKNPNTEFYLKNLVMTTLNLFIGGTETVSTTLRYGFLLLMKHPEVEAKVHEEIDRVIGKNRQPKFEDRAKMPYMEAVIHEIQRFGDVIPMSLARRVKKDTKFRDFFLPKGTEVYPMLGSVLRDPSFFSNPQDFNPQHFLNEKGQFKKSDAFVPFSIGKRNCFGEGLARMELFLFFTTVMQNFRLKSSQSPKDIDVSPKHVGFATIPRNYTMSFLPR
# CYP2B6 [7] = molecular target: T3, CYP2B6 (Homo sapiens, UniProt P20813); assay: CYP inhibition in human liver microsomes; assay type: in vitro ADME
# T3 construct: In vitro studies in human liver microsomes; from tissue; host or cells: human liver microsomes
# T3 sequence (P20813 whole entry): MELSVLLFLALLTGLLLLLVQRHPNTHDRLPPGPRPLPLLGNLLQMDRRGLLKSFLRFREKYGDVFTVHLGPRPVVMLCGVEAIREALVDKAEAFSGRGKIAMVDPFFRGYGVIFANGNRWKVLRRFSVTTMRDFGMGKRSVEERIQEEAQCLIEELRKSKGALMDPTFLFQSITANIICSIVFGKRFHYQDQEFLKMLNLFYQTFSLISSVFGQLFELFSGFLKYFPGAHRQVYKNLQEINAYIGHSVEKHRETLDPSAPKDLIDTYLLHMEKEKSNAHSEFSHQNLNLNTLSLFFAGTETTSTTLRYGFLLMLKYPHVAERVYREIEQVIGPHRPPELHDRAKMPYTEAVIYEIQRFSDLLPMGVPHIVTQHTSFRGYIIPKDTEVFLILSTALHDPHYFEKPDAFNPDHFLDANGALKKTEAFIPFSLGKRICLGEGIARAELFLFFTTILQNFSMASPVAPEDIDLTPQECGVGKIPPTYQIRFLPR
# CYP2C8 [8] = molecular target: T4, CYP2C8 (Homo sapiens, UniProt P10632); assay: CYP inhibition in human liver microsomes; assay type: in vitro ADME
# T4 construct: In vitro studies in human liver microsomes; from tissue; host or cells: human liver microsomes
# T4 sequence (P10632 whole entry): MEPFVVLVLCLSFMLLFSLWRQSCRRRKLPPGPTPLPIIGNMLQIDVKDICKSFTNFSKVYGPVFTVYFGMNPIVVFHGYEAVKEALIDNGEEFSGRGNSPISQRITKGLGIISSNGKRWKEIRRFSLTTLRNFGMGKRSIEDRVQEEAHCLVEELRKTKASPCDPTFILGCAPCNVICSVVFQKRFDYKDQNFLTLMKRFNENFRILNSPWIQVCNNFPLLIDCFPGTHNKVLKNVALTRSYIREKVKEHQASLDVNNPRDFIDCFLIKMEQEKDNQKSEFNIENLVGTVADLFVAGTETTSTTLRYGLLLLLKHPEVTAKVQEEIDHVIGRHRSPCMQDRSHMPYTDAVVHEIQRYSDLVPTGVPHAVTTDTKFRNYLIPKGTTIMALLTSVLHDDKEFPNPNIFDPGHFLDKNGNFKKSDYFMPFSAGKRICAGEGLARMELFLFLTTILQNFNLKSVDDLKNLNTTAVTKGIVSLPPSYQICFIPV
# CYP2C9 [9] = molecular target: T5, CYP2C9 (Homo sapiens, UniProt P11712); assay: CYP inhibition in human liver microsomes; assay type: in vitro ADME
# T5 construct: In vitro studies in human liver microsomes; from tissue; host or cells: human liver microsomes
# T5 sequence (P11712 whole entry): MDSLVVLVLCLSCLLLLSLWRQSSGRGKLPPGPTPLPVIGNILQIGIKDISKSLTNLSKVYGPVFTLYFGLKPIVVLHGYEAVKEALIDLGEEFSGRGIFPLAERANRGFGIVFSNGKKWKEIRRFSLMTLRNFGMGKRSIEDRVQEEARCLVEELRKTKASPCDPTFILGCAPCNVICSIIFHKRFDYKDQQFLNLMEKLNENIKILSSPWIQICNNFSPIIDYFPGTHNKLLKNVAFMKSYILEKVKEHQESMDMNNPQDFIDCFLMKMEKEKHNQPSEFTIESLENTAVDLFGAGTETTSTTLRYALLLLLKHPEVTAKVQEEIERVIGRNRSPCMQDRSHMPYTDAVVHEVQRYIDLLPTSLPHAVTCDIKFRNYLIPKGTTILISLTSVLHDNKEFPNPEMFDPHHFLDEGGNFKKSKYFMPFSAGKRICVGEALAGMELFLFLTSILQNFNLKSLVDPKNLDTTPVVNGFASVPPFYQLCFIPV
# CYP2C19 [10] = molecular target: T6, CYP2C19 (Homo sapiens, UniProt P33261); assay: CYP inhibition in human liver microsomes; assay type: in vitro ADME
# T6 construct: In vitro studies in human liver microsomes; from tissue; host or cells: human liver microsomes
# T6 sequence (P33261 whole entry): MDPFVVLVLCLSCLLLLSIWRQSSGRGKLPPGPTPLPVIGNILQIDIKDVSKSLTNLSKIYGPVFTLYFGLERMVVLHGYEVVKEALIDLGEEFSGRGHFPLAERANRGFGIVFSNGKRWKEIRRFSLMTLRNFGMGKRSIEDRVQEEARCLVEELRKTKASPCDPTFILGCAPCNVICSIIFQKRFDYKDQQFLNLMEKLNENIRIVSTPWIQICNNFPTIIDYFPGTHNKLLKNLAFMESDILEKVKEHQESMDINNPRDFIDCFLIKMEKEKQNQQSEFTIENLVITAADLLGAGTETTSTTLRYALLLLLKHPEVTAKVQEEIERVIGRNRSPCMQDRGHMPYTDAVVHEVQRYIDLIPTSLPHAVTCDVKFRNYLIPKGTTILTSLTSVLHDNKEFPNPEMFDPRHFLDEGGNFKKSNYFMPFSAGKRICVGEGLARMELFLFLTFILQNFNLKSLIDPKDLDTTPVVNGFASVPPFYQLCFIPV
# CYP2D6 = molecular target: T7, CYP2D6 (Homo sapiens, UniProt P10635); assay: CYP inhibition in human liver microsomes; assay type: in vitro ADME
# T7 construct: In vitro studies in human liver microsomes; from tissue; host or cells: human liver microsomes
# T7 sequence (P10635 whole entry): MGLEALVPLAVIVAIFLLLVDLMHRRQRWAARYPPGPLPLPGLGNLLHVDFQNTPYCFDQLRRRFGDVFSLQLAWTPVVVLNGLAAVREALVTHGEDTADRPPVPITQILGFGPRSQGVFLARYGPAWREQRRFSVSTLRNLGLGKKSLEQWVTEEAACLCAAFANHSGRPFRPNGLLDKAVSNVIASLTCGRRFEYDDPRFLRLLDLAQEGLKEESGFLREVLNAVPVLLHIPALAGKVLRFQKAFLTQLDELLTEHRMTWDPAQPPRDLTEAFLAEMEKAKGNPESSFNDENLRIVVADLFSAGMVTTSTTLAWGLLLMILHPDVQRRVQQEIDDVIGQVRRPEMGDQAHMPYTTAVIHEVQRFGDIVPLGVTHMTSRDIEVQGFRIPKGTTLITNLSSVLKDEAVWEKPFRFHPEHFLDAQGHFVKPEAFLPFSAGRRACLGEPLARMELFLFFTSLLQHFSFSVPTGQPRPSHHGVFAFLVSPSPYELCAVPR
# CYP2E1 = molecular target: T8, CYP2E1 (Homo sapiens, UniProt P05181); assay: CYP inhibition in human liver microsomes; assay type: in vitro ADME
# T8 construct: In vitro studies in human liver microsomes; from tissue; host or cells: human liver microsomes
# T8 sequence (P05181 whole entry): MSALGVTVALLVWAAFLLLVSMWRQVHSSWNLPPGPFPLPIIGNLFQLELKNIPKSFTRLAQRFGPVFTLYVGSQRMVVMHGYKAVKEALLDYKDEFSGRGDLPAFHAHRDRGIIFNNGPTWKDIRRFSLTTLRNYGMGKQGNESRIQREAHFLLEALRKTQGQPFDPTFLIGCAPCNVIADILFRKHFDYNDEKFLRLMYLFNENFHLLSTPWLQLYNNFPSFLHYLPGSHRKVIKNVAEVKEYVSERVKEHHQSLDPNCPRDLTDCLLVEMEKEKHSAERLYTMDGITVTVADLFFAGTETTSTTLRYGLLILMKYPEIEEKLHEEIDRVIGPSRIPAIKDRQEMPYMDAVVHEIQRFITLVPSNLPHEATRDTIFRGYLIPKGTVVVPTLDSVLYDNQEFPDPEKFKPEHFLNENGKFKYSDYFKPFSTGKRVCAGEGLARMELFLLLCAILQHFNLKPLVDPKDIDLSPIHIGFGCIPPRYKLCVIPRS
# CYP3A4 = molecular target: T9, CYP3A4 (Homo sapiens, UniProt P08684); assay: CYP inhibition in human liver microsomes; assay type: in vitro ADME
# T9 construct: In vitro studies in human liver microsomes; from tissue; host or cells: human liver microsomes
# T9 sequence (P08684 whole entry): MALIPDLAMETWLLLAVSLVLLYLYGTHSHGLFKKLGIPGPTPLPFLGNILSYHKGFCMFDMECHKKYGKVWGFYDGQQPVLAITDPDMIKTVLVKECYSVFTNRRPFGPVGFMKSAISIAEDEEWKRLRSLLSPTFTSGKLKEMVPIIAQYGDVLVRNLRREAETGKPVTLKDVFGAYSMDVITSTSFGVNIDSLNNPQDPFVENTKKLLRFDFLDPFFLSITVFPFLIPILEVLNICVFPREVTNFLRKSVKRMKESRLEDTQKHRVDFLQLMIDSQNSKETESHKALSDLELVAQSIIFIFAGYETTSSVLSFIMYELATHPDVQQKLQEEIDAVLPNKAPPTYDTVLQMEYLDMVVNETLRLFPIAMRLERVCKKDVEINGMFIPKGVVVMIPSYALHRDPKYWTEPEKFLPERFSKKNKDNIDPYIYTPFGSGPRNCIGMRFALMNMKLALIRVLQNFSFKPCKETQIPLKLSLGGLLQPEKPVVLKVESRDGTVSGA
# CYP2B6 [11] = assay: CYP induction in human hepatocytes; assay type: in vitro ADME
# CYP2C9 [12] = assay: CYP induction in human hepatocytes; assay type: in vitro ADME
# CYP3A4/5 = assay: CYP induction in human hepatocytes; assay type: in vitro ADME
# [13] = test system: complicated skin and skin structure infections (cSSSI); assay: Phase 3 cSSSI Study 2; assay type: in vivo, human; settings: versus vancomycin/aztreonam
# Procedure: A total of 1396 adults with clinically documented complicated skin and skin structure infections (cSSSI) were enrolled in two randomized, multi-center, multinational, double-blind, studies comparing 600 mg ceftaroline fosamil administered intravenously over 1 hour every 12 hours to vancomycin plus aztreonam [1 g vancomycin administered intravenously over 1 hour followed by 1 g aztreonam administered intravenously over 1 hour every 12 hours]. Patients with cSSSI (deep/extensive cellulitis, a major abscess, a wound infection [surgical or traumatic], infected insect bites, burns or ulcers, lower extremity infection in patients with diabetes mellitus or peripheral vascular disease), were enrolled in the studies. Treatment duration was 5 to 14 days. A switch to oral therapy was not allowed. The Modified Intent-to-Treat (MITT) population included all patients who received any amount of study drug according to their randomized treatment group.
# The primary efficacy endpoint was clinical response at the Test of Cure (TOC) visit in the co-primary CE and MITT populations (Table 2). […] In a subgroup analysis (CE population), the comparative clinical cure rates between the ceftaroline group and the vancomycin plus aztreonam group were not affected by age, gender, race, ethnicity, or weight.
# [14] = test system: Community-Acquired Bacterial Pneumonia (CABP); assay: Two Phase 3 studies in CABP, integrated; assay type: in vivo, human; settings: versus ceftriaxone, integrated CABP studies
# Procedure: as §1
# The primary efficacy endpoint was the clinical response at the Test of Cure (TOC) visit in the co-primary CE and MITTE populations (Table 4). In a subgroup analysis (CE population), the comparative clinical cure rates between the ceftaroline group and the ceftriaxone group were not affected by age, gender, race, ethnicity, or weight.
# [15] = test system: Community-Acquired Bacterial Pneumonia (CABP); assay: Phase 3 CABP Study 1 (Example 5, adjunctive clarithromycin); assay type: in vivo, human; settings: versus ceftriaxone, CABP Study 1
# Procedure: as §1, §2
# as §3, with “objective” for “objectives”, “was” for “were”, “following: the” for “following:”
# as §4, with “The” for “The following criteria were used for evaluation: The”, “TOC” for “test-of-cure (TOC)”
# as §5
# [16] = Safety, four pooled controlled comparative Phase 3 studies (two cSSSI, two CABP); assay type: in vivo, human; settings: pooled Phase 3 studies
# Procedure: Ceftaroline fosamil was evaluated in four controlled comparative Phase 3 clinical studies (two in cSSSI and two in CABP).
# CYP1A2 [17] = settings: human hepatocytes
# CYP2C8 [18] = settings: human hepatocytes
# CYP2C19 [19] = settings: human hepatocytes
# [20] = Safety population, listed as ceftriaxone
smiles,measurement,setting,value
"CO/N=C(\C(=O)N[C@@H]1C(=O)N2C(C(=O)O)=C(CSc3nc(=O)c(=O)[nH]n3C)CS[C@H]12)c1csc(N)n1 [Ceftriaxone, reference compound]",Per-subject Clinical Cure Rate at the EOT Visit,"[1]; MITTE population, Example 4",215 (78.8) %
same,Favorable Microbiological Outcome at the TOC Visit,"[1]; mMITTE population, Example 4",72 (81.8) %
same,Clinical Cure Rate by Infecting Pathogen,[2],15/17 (88.2%)
same,TEAEs leading to premature discontinuation from study drug administration,[3],1.3%
same,"any study-drug-related TEAEs, subjects",[3],13.7%
same,study-drug-related TEAE: headache,[3],1.0%
same,"Early withdrawal from study, reason Adverse Event",[3]; MITTE population,7 (2.6) %
same,"Any AE (TEAE), subjects",[3]; Safety population,145 (47.2) %
same,"COPD, subjects",[3]; Safety population,5 (1.6) %
same,"Diarrhea, subjects",[3]; Safety population,9 (2.9) %
same,"Headache, subjects",[3]; Safety population,5 (1.6) %
same,"Hypertension, subjects",[3]; Safety population,8 (2.6) %
same,"Hypokalemia, subjects",[3]; Safety population,5 (1.6) %
same,"Insomnia, subjects",[3]; Safety population,8 (2.6) %
same,"Nausea, subjects",[3]; Safety population,6 (2.0) %
same,"Phlebitis, subjects",[3]; Safety population,8 (2.6) %
same,"Pleural effusion, subjects",[3]; Safety population,7 (2.3) %
same,"Pneumonia, subjects",[3]; Safety population,4 (1.3) %
same,"Any AE (TEAE), subjects",[3]; [20],47.2%
same,TEAEs leading to premature discontinuation from study drug administration,[4],3.9%
same,subjects with SAEs considered possibly or probably related to study drug,[4],5 subjects
same,"Early withdrawal from study, reason Adverse Event",[4]; MITTE population,7 (2.3) %
same,"Any AE (TEAE), subjects",[4]; Safety population,136 (44.2) %
same,"Constipation, subjects",[4]; Safety population,5 (1.6) %
same,"Diarrhea, subjects",[4]; Safety population,7 (2.3) %
same,"Headache, subjects",[4]; Safety population,4 (1.3) %
same,"Hypertension, subjects",[4]; Safety population,8 (2.6) %
same,"Hypokalemia, subjects",[4]; Safety population,10 (3.2) %
same,"Insomnia, subjects",[4]; Safety population,6 (1.9) %
same,"Nausea, subjects",[4]; Safety population,8 (2.6) %
same,"Phlebitis, subjects",[4]; Safety population,5 (1.6) %
same,"Any AE (TEAE), subjects",[4]; [20],44.2%
same,"Diarrhea, subjects",[4]; [20],2.3%
same,"Headache, subjects",[4]; [20],1.3%
"CCO/N=C(\C(=O)N[C@@H]1C(=O)N2C(C(=O)[O-])=C(Sc3nc(-c4cc[n+](C)cc4)cs3)CS[C@H]12)c1nsc(NP(=O)(O)O)n1 [Ceftaroline fosamil, (6R,7R)-7-{(2Z)-2-(ethoxyimino)-2-[5-(phosphonoamino)-1,2,4-thiadiazol-3-yl]acetamido}-3-{[4-(1-methylpyridin-1-ium-4-yl)-1,3-thiazol-2-yl]sulfanyl}-8-oxo-5-thia-1-azabicyclo[4.2.0]oct-2-ene-2-carboxylate]",solubility,Aqueous solubility,more than 200 mg per ml
same,conversion of prodrug in plasma,[5],rapidly converted into bioactive ceftaroline in plasma
same,inhibition of CYP1A1,CYP1A1,neither ceftaroline fosamil nor ceftaroline inhibits
same,inhibition of CYP1A2,CYP1A2 [6],neither ceftaroline fosamil nor ceftaroline inhibits
same,inhibition of CYP2A6,CYP2A6,neither ceftaroline fosamil nor ceftaroline inhibits
same,inhibition of CYP2B6,CYP2B6 [7],neither ceftaroline fosamil nor ceftaroline inhibits
same,inhibition of CYP2C8,CYP2C8 [8],neither ceftaroline fosamil nor ceftaroline inhibits
same,inhibition of CYP2C9,CYP2C9 [9],neither ceftaroline fosamil nor ceftaroline inhibits
same,inhibition of CYP2C19,CYP2C19 [10],neither ceftaroline fosamil nor ceftaroline inhibits
same,inhibition of CYP2D6,CYP2D6,neither ceftaroline fosamil nor ceftaroline inhibits
same,inhibition of CYP2E1,CYP2E1,neither ceftaroline fosamil nor ceftaroline inhibits
same,inhibition of CYP3A4,CYP3A4,neither ceftaroline fosamil nor ceftaroline inhibits
same,induction of CYP2B6,CYP2B6 [11],not inducers
same,induction of CYP2C9,CYP2C9 [12],not inducers
same,induction of CYP3A4/5,CYP3A4/5,not inducers
same,Treatment Difference (2-sided 95% CI),[13]; CE,"0.1 (−4.4., 4.5)"
same,Treatment Difference (2-sided 95% CI),[13]; MITT,"−0.4 (−5.8, 5.0)"
same,Treatment Difference in clinical cure rate at TOC,[14]; CE,"6.7 (1.6, 11.8) %"
same,Treatment Difference in clinical cure rate at TOC,[14]; MITTE,"6.0 (1.4, 10.7) %"
same,Treatment Difference in clinical cure rate at TOC,[15]; CE,"8.4 (1.4, 15.4) %"
same,Treatment Difference in clinical cure rate at TOC,[15]; MITTE,"6.2 (−0.2, 12.6) %"
same,Treatment Difference in clinical cure rate at TOC,[1]; CE,"4.9 (−2.5, 12.5) %"
same,Treatment Difference in clinical cure rate at TOC,[1]; MITTE,"5.9 (−1.0, 12.7) %"
same,highest incidence of any adverse reaction,[16],≤ 5%
same,hypersensitivity leading to discontinuation,[16],0.3%
same,induction of CYP1A2,CYP1A2 [17],not inducers
same,induction of CYP2C8,CYP2C8 [18],not inducers
same,induction of CYP2C19,CYP2C19 [19],not inducers
same,Clinical Cure Rate by Infecting Pathogen,[2],16/16 (100%)
CCO/N=C(\C(=O)N[C@H](C(=O)[O-])[C@@H]1NC(C(=O)[O-])=C(Sc2nc(-c3cc[n+](C)cc3)cs2)CS1)c1nsc(N)n1.[H+] [ceftaroline M-1],induction of CYP2B6,CYP2B6 [11],not inducers
same,induction of CYP2C9,CYP2C9 [12],not inducers
same,induction of CYP3A4/5,CYP3A4/5,not inducers
same,induction of CYP1A2,CYP1A2 [17],not inducers
same,induction of CYP2C8,CYP2C8 [18],not inducers
same,induction of CYP2C19,CYP2C19 [19],not inducers
